Test results published in ChEMBL document CHEMBL4043267, “Synthesis of photocaged 6-O-(2-nitrobenzyl)guanosine and 4-O-(2-nitrobenzyl) uridine triphosphates for photocontrol of the RNA transcription reaction” (Bioorg Med Chem, 2017).
The source made the active and inactive calls. No cut-off for these calls is given here.

Legend:
[1] = molecular target: T7 RNA polymerase (Enterobacteria phage T7) (UniProt P00573); experiment: Inhibition of T7 RNA polymerase assessed as RNA product formation at 10 mM using double stranded DNA as substrate after 4 hrs in presence of NTPs by sybrGOLD staining based fluorescence assay (reference value: 100%); parameters: scale not given: the % may be the effect or the level left; conditions: Escherichia phage T7
[2] = molecular target: T7 RNA polymerase (Enterobacteria phage T7) (UniProt P00573); experiment: (§1) Inhibition of T7 RNA polymerase assessed as RNA product formation at 2 mM using double stranded DNA as substrate incubated in presence of UV irradiation for 20 secs followed by enzyme addition measured after 4 hrs in presence of NTPs by sybrGOLD staining based fluorescence assay relative to control; parameters: scale not given: the % may be the effect or the level left; conditions: Escherichia phage T7
[3] = molecular target: T7 RNA polymerase (Enterobacteria phage T7) (UniProt P00573); experiment: Inhibition of T7 RNA polymerase assessed as reduction in RNA product formation at 2 mM using double stranded DNA as substrate incubated in absence of UV irradiation followed by enzyme addition measured after 4 hrs in presence of NTPs by sybrGOLD staining based fluorescence assay relative to control; conditions: Escherichia phage T7
[4] = molecular target: T7 RNA polymerase (Enterobacteria phage T7) (UniProt P00573); experiment: Inhibition of T7 RNA polymerase assessed as RNA product formation at 5 mM using double stranded DNA as substrate after 4 hrs in presence of NTPs by sybrGOLD staining based fluorescence assay (reference value: 100%); parameters: scale not given: the % may be the effect or the level left; conditions: Escherichia phage T7
[5] = molecular target: T7 RNA polymerase (Enterobacteria phage T7) (UniProt P00573); experiment: as §1, with “assessed as reduction in RNA product” for “assessed as RNA product”, “irradiation for 60 secs followed” for “irradiation for 20 secs followed”; parameters: scale not given: the % may be the effect or the level left; conditions: Escherichia phage T7
[6] = molecular target: T7 RNA polymerase (Enterobacteria phage T7) (UniProt P00573); experiment: Inhibition of T7 RNA polymerase assessed as RNA product formation at 1 mM using double stranded DNA as substrate after 4 hrs in presence of NTPs by sybrGOLD staining based fluorescence assay (reference value: 100%); parameters: scale not given: the % may be the effect or the level left; conditions: Escherichia phage T7
[7] = molecular target: T7 RNA polymerase (Enterobacteria phage T7) (UniProt P00573); experiment: Inhibition of T7 RNA polymerase assessed as RNA product formation at 2 mM using double stranded DNA as substrate incubated in presence of UV irradiation for 10 secs followed by enzyme addition measured after 4 hrs in presence of NTPs by sybrGOLD staining based fluorescence assay relative to controll; parameters: scale not given: the % may be the effect or the level left; conditions: Escherichia phage T7
[8] = molecular target: T7 RNA polymerase (Enterobacteria phage T7) (UniProt P00573); experiment: as §1, with “assessed as reduction in RNA product” for “assessed as RNA product”, “irradiation for 40 secs followed” for “irradiation for 20 secs followed”; parameters: scale not given: the % may be the effect or the level left; conditions: Escherichia phage T7
[9] = molecular target: T7 RNA polymerase (Enterobacteria phage T7) (UniProt P00573); experiment: Inhibition of T7 RNA polymerase assessed as RNA product formation at 0.2 mM using double stranded DNA as substrate after 4 hrs in presence of NTPs by sybrGOLD staining based fluorescence assay (reference value: 100%); parameters: scale not given: the % may be the effect or the level left; conditions: Escherichia phage T7
[10] = molecular target: T7 RNA polymerase (Enterobacteria phage T7) (UniProt P00573); experiment: Inhibition of T7 RNA polymerase assessed as RNA product formation at 2 mM using double stranded DNA as substrate incubated in presence of UV irradiation for 5 secs followed by enzyme addition measured after 4 hrs in presence of NTPs by sybrGOLD staining based fluorescence assay relative to control; parameters: scale not given: the % may be the effect or the level left; conditions: Escherichia phage T7
[11] = molecular target: T7 RNA polymerase (Enterobacteria phage T7, UniProt P00573); experiment: (§2) Inhibition of T7 RNA polymerase assessed as reduction in RNA product formation using double stranded DNA as substrate after 4 hrs in presence of NTPs by sybrGOLD staining based fluorescence assay (reference value: 100%); parameters: species or system Escherichia phage T7
[12] = molecular target: T7 RNA polymerase (Enterobacteria phage T7) (UniProt P00573); experiment: as §2; conditions: Escherichia phage T7
[13] = molecular target: T7 RNA polymerase (Enterobacteria phage T7) (UniProt P00573); experiment: Inhibition of T7 RNA polymerase assessed as RNA product formation at 2 mM using double stranded DNA as substrate after 4 hrs in presence of NTPs by sybrGOLD staining based fluorescence assay (reference value: 100%); parameters: scale not given: the % may be the effect or the level left; conditions: Escherichia phage T7
[14] = molecular target: T7 RNA polymerase (Enterobacteria phage T7) (UniProt P00573); experiment: Inhibition of T7 RNA polymerase assessed as RNA product formation at 2 mM using double stranded DNA as substrate incubated in presence of UV irradiation for 1 sec followed by enzyme addition measured after 4 hrs in presence of NTPs by sybrGOLD staining based fluorescence assay relative to control; parameters: scale not given: the % may be the effect or the level left; conditions: Escherichia phage T7
[15] = molecular target: T7 RNA polymerase (Enterobacteria phage T7) (UniProt P00573); experiment: Inhibition of T7 RNA polymerase assessed as reduction in RNA product formation at 2 mM using double stranded DNA as substrate after 4 hrs in absence of NTPs by sybrGOLD staining based fluorescence assay (reference value: 100%); conditions: Escherichia phage T7
[16] = molecular target: T7 RNA polymerase (Enterobacteria phage T7) (UniProt P00573); experiment: Inhibition of T7 RNA polymerase assessed as RNA product formation at 0.5 mM using double stranded DNA as substrate after 4 hrs in presence of ATP/UTP/CTP by sybrGOLD staining based fluorescence assay (reference value: 100%); parameters: scale not given: the % may be the effect or the level left; conditions: Escherichia phage T7

Chain of T7 RNA polymerase (Enterobacteria phage T7) (P00573 whole entry): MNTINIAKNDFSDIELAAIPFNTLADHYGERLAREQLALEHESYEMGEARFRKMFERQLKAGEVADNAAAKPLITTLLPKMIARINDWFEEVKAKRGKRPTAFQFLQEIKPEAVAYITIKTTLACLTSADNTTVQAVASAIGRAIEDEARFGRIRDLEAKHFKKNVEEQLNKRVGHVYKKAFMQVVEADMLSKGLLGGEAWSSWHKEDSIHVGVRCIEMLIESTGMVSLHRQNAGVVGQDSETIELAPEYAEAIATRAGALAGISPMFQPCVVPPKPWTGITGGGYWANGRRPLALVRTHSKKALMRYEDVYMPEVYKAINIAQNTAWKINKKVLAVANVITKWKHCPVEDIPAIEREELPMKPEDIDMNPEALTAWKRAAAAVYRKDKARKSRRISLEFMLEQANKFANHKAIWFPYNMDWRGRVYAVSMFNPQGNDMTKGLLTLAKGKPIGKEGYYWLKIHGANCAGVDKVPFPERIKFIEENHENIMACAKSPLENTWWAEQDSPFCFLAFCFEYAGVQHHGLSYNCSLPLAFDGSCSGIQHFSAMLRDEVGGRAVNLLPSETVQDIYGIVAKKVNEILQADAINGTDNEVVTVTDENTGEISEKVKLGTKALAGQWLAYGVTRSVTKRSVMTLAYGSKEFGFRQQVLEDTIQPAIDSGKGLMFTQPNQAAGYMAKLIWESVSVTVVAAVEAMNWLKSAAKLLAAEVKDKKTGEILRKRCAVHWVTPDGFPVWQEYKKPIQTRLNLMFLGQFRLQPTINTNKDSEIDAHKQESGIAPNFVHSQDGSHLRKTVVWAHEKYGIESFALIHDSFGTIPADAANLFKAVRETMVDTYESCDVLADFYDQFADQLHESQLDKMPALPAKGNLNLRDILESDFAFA
Chain of T7 RNA polymerase (P00573 whole entry): as above

Q: With `Nc1nc(OCc2ccccc2[N+](=O)[O-])c2ncn([C@@H]3O[C@H](COP(=O)(O)OP(=O)(O)OP(=O)(O)O)[C@@H](O)[C@H]3O)c2n1` as the molecule, how does the Activity [1] read?
A: The Activity was 13%.

Q: What about the Activity [2] of the same molecule?
A: The Activity was 62%.

Q: And the inhibition [3]?
A: Its inhibition is “Active”.

Q: What about the Activity [4] of the same molecule?
A: The Activity was 47%.

Q: What about the Activity [5] of the same molecule?
A: The Activity was 62%.

Q: What about the Activity [6] of the same molecule?
A: Its Activity is 87%.

Q: And the Activity [7]?
A: The Activity was 53%.

Q: And the Activity [8]?
A: Its Activity is 64%.

Q: What about the Activity [9] of the same molecule?
A: Its Activity is 89%.

Q: And the Activity [10]?
A: The Activity was 41%.

Q: And the IC50 [11]?
A: Its IC50 is 5 mM.

Q: And the inhibition [12]?
A: Its inhibition is “Dose-dependent effect”.

Q: What about the Activity [13] of the same molecule?
A: Its Activity is 60 to 64%.

Q: What about the Activity [14] of the same molecule?
A: Its Activity is 4%.

Q: And the inhibition [15]?
A: Its inhibition is “Active”.

Q: What about the Activity [16] of the same molecule?
A: Its Activity is 89%.

Q: Which Activity [1] does the source give for `O=c1nc(OCc2ccccc2[N+](=O)[O-])ccn1[C@@H]1O[C@H](COP(=O)(O)OP(=O)(O)OP(=O)(O)O)[C@@H](O)[C@H]1O` here?
A: The Activity was 8%.

Q: What about the Activity [2] of the same molecule?
A: The Activity was 70%.

Q: What about the inhibition [3] of the same molecule?
A: The inhibition was “Active”.

Q: What about the Activity [4] of the same molecule?
A: Its Activity is 39%.

Q: And the Activity [5]?
A: Its Activity is 60%.

Q: What about the Activity [6] of the same molecule?
A: Its Activity is 73%.

Q: And the Activity [7]?
A: The Activity was 72%.

Q: What about the Activity [8] of the same molecule?
A: The Activity was 66%.

Q: And the Activity [9]?
A: Its Activity is 94%.

Q: What about the Activity [10] of the same molecule?
A: The Activity was 81%.

Q: And the IC50 [11]?
A: The IC50 was 5 mM.

Q: What about the inhibition [12] of the same molecule?
A: The inhibition was “Dose-dependent effect”.

Q: What about the Activity [13] of the same molecule?
A: Its Activity is 63 to 70%.

Q: What about the Activity [14] of the same molecule?
A: Its Activity is 67%.

Q: And the Activity [16]?
A: The Activity was 84%.
